Where two headings read alike, the source gives them in different places.
What was measured:
[1] = target: T1, DAPK1 (Rattus norvegicus, UniProt F1LNN8); assay: DAPK1 knockdown in brain, rat MCAO focal ischemia model (immunoblot, immunohistochemistry); type: in vivo; settings: 10 mg/kg i.v., ischemic vs contralateral side; listed as TATNR2B
T1 construct: decreased the level of endogenous DAPK1 in cultured cortical neurons following NMDA treatment; endogenous in cells; host or cells: primary rat cortical neurons (E18, 14-18 DIV)
Protocol: (§1) Immunoblotting. Immunoblotting assays were carried out as previously described^36. Briefly, proteins were extracted from neurons using a lysis buffer composed of 150 mM NaCl, 50 mM Tris, pH 7.4, 0.1% SDS, 1% NP-40, 0.5% sodium deoxycholate, 1 mM EDTA, 1 mM Na3VO4, and proteinase inhibitor mixture (Thermo Fisher, PI78442). Samples were separated on 10% SDS-PAGE gels, transferred to polyvinylidene difluoride (PVDF) membrane, and immunoblotted with respective antibodies. Blots were enhanced with chemiluminescence detection reagent kit (Fisher, 32106) and visualized with Bio-Rad imager and Quantity One software. Signal intensities from each band was quantified with Bio-Rad Image Lab software, and the bands were analyzed relative to their controls from the same membrane and experiment.
(§2) Middle cerebral arterial occlusion (MCAO). All animal experiments were performed according to protocols approved by the University of British Columbia Committee on Animal Care. Adult naïve male Sprague-Dawley rats (300-350 g, Charles River) were group housed (3-4 animals/cage) in 12 hr:12 hr light-dark cycles and had free access to rat pellet chow and water prior to surgery. Reversible MCAO with suture-insertion method was performed as described previously^37. Briefly, a nylon suture with a blunted tip was entered through the right external carotid artery of anesthetized rats and advanced to the right internal carotid artery until the right MCA was occluded. After 60 min of occlusion, the rat was reanesthetized to facilitate the removal of the occlusion. Body temperature was maintained at between 36.5 and 37.5° C. throughout the surgical procedure with a heating pad. Peptides (10 mg/kg) or vehicle control (saline; 1 ml/kg) was injected via the jugular vein. Rats were then sewn up and allowed to recover until tissue collection.
Immunohistochemistry. Rats were anesthetized and perfused with double-filtered saline and 4% paraformaldehyde (PFA) in PBS. Brains were collected, immersed in 4% PFA before subjected to cryoprotection by 30% sucrose/PBS. After the brains had sunk, they were flash frozen with dry ice before overnight freezing in −80° C. They were then sliced at […] with a cryostat, and stored in 0.1 μM PB (sodium phosphate dibasic and sodium phosphate monobasic). Prior to staining, slices were washed 3×10 min with 0.1 μM PB, permeablized and blocked in 0.1 μM PB with 1% BSA and 0.2% Triton X-100 for 30 min, and stained with anti-DAPK1 (1:100) at 4° C. for 3 days. They were then washed and stained with Alexa 488 (1:1000) at 4° C. overnight before washing and mounting.

[2] = test system: rat middle cerebral artery occlusion focal ischemia model; assay: Ischemic brain damage, rat MCAO focal ischemia model (H&E staining); type: in vivo; settings: 10 mg/kg i.v., 60 min MCAO
Protocol: as §2
Hematoxylin & Eosin (H&E) staining. Slices were mounted and dried on glass slides prior staining. Slides were immersed in Hematoxylin solution (Sigma, MHS1-100ML) for 15 min away from light, followed by 5 min blueing under tap water. Slides were then counterstained with 0.5% Eosin Y (Sigma, E4009-5G) and dipped in ddH2O until the eosin stopped streaking. […]

[3] = target: T1, DAPK1; assay: Knockdown of native DAPK1 in cultured cortical neurons, NMDA stimulation (immunoblot); type: cell-based; settings: synthetic peptide 25 μM, prior to and during NMDA
Protocol: Cell culture, transfection and treatments. HEK293 cells and COS7 cells were cultured in DMEM (Sigma, D6429-24X500ML) supplemented with 10% Fetal Bovine Serum (Invitrogen, 12483020). Cells were grown to 80% confluence in 6-well plates before transiently transfected with Lipofectamine 2000 (Invitrogen, 11668019), as according to the manufacturer's protocols. Cells were transfected for either 24 or 48 hours at 37° C. before harvesting for biochemical analyses. For experiments involving TAT or His-TAT peptides, unless otherwise specified, peptides were added 1 hour prior to NMDA insult.
(§3) Primary culture of cortical neurons. Dissociated cultures of rat cortical neurons were prepared from Sprague Dawley rat embryos collected from euthanized mothers 18 days after fertilization as previously described^35. Briefly, hippocampi and cerebral cortices were extracted from embryos and incubated for 30 min in 0.25% trypsin-EDTA. Digested tissues were dissociated by trituration and plated on poly-D-lysine-coated (Sigma, P7280) plates. Plating medium consisted of Neurobasal Media (Invitrogen, 21103-049) supplemented with B27 (Invitrogen, 17504044), glutamic acid (Sigma, G8415) and GlutaMax (Invitrogen, 35050-061). After 2 days, 2/3 of the media was replaced with fresh Neurobasal feeding media consisting of Neurobasal Media, B27 and GlutaMax. Cultures were maintained at 37° C. in a humidified 5% CO2 atmosphere. Mature neurons (14-18 days in vitro (DIV)) were used for experiments.
as §1
Cellular fractionation. Cytoplasm/nuclei fractionation was performed on cultured cortical neurons (6.0*10^6 cells/100 mm dish). Briefly, cells were washed with ice cold PBS and rocked in lysis buffer for 30 min. Cells were then collected and centrifuged to obtain a rough cytoplasmic and nuclear fraction. Supernatant was collected and further centrifuged to obtain purified cytosolic fraction. The original pellet was washed and vortexed to obtain a nuclear lysis. Mitochondrial fractionation was performed as described in the Pierce Mitochondria Isolation Kit for Cultured Cells (Thermo Scientific, 89874) user guide. Purity was assessed by immunoblotting for the presence of LB1 (nucleus only), HSP90 (cytosol only) and VDAC1 (mitochondria only).

[4] = test system: cortical neurons; type: cell-based; settings: H2O2 300 μM 30 min
Protocol: as §3, with “Mature neurons (14-18 days in vitro (DIV)) were used for experiments.” left out
Assessment of neuronal death. Cytotoxic damage of primary neuron cultures was assessed by measuring LDH released into culture media as previously described^38. […] Peptide toxicity was assessed by treating neurons with 25 μM synthetic peptide or 200 μM recombinant peptide for 24 hrs. […] The amount of LDH in the medium was determined using a LDH cytotoxicity detection kit (Sigma, TOX7) according to the manufacturer's instructions. The absorbance at 490 nm was determined using a microplate reader (μQuant, Bio-TEK instruments), which was adjusted by background reading deduction.

T1 sequence (F1LNN8 1-1430): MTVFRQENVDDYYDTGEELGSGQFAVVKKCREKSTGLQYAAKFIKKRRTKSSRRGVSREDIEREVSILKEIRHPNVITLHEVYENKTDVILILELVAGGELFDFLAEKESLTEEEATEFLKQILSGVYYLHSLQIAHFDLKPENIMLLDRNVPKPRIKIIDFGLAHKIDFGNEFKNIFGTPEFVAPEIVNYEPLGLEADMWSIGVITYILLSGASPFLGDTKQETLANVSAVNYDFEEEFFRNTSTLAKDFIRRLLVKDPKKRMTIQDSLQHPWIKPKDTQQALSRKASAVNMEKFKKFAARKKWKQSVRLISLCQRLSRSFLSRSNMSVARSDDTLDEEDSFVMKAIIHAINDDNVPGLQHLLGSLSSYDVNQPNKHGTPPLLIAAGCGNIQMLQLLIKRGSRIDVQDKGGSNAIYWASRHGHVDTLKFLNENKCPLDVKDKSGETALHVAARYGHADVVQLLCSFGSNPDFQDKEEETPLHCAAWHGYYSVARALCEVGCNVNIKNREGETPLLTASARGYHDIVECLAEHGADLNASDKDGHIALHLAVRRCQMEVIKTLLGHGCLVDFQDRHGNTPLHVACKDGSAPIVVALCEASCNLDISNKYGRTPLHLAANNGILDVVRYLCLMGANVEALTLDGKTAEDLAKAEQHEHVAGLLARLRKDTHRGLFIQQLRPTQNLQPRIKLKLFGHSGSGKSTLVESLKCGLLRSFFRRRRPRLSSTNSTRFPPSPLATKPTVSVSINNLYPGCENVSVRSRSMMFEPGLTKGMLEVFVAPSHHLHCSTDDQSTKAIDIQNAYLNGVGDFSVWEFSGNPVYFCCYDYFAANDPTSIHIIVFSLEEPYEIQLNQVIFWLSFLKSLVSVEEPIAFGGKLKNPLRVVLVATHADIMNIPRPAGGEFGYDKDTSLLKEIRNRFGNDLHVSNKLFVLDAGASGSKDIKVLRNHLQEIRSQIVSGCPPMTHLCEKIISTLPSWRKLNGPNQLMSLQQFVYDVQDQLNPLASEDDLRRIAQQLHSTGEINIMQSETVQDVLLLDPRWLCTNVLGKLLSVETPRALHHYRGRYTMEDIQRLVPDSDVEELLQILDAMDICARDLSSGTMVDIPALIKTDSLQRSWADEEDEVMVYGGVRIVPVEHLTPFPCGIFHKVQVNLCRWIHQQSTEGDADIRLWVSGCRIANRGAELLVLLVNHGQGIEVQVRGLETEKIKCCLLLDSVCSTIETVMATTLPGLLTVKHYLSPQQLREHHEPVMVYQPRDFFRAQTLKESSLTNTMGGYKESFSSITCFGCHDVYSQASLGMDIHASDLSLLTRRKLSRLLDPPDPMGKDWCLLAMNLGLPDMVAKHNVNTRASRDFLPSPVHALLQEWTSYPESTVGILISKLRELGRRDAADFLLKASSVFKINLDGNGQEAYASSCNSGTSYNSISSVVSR

## YGRKKRRQRRRKKNRNKLRRQHSY [TAT-NR2B, CTS-lacking control peptide, reference compound]
[1]
  effect on DAPK1 levels in brain tissues (immunoblot): no obvious change
[2]
  ischemic damage / infarct areas (H&E staining): partially decreased ischemic damage
[3]
  effect on DAPK1 level after NMDA treatment: did not affect DAPK1 levels

## N[C@H](CCCP(=O)(O)O)C(=O)O [APV, (2R)-amino-5-phosphonopentanoic acid]
[4]; 50 μM, 12 hours after treatment
  neuronal death (LDH) normalized to naïve non-treated control (set as 1): 2.16±13.8

## catalase
[4]; catalase added, 12 hours
  neuronal death (LDH) normalized to naïve non-treated control (set as 1): 1.17±1.76

— patent US12428456B2, “Peptide directed protein knockdown” (University of British Columbia, priority 2012, dated 2025)
